# Experimental data taken from ChEMBL document CHEMBL1909570, “Synthesis and antibacterial activity of N4-mono alkyl derivatives of novel glycopeptide LYV07ww01” (2011).
# Tests used:
# Assay type in all cases: functional
# Enterococcus faecium = assay: Antibacterial activity against Enterococcus faecium 32220 by CLSI agar microdilution method
# Streptococcus = assay: Antibacterial activity against Streptococcus gamma 32206 by CLSI agar microdilution method
# Staphylococcus aureus = assay: Antibacterial activity against Staphylococcus aureus 26003 by CLSI agar microdilution method
# [1] = system: Staphylococcus epidermidis; assay: Antibacterial activity against Staphylococcus epidermidis 26069 by CLSI agar microdilution method
# Streptococcus pneumoniae = assay: Antibacterial activity against Streptococcus pneumoniae 31002 by CLSI agar microdilution method
# Staphylococcus = assay: Antibacterial activity against Staphylococcus albus 26101 by CLSI agar microdilution method
MIC (Enterococcus faecium) [µg/mL],MIC (Streptococcus) [µg/mL],MIC (Staphylococcus aureus) [µg/mL],MIC [1] [µg/mL],MIC (Streptococcus pneumoniae) [µg/mL],MIC (Staphylococcus) [µg/mL],Structure (SMILES)
1.56,12.5,1.56,12.5,1.56,3.13,CN[C@H](CC(C)C)C(=O)N[C@H]1C(=O)N[C@@H](CC(N)=O)C(=O)N[C@H]2C(=O)N[C@H]3C(=O)N[C@H](C(=O)N[C@@H](C(=O)O)c4cc(O)cc(O)c4-c4cc3ccc4O)[C@H](O[C@H]3C[C@](C)(N)[C@H](O)[C@H](C)O3)c3ccc(c(Cl)c3)Oc3cc2cc(c3O[C@@H]2O[C@H](CO)[C@@H](O)[C@H](O)[C@H]2O[C@H]2C[C@](C)(NCc3cc(F)c(F)cc3F)[C@H](O)[C@H](C)O2)Oc2ccc(cc2Cl)[C@H]1O
3.13,1.56,3.13,12.5,1.56,3.13,CN[C@H](CC(C)C)C(=O)N[C@H]1C(=O)N[C@@H](CC(N)=O)C(=O)N[C@H]2C(=O)N[C@H]3C(=O)N[C@H](C(=O)N[C@@H](C(=O)O)c4cc(O)cc(O)c4-c4cc3ccc4O)[C@H](O[C@H]3C[C@](C)(N)[C@H](O)[C@H](C)O3)c3ccc(c(Cl)c3)Oc3cc2cc(c3O[C@@H]2O[C@H](CO)[C@@H](O)[C@H](O)[C@H]2O[C@H]2C[C@](C)(NCc3ccc(Cl)cc3)[C@H](O)[C@H](C)O2)Oc2ccc(cc2Cl)[C@H]1O
1.56,0.78,1.56,> 25,0.78,1.56,CN[C@H](CC(C)C)C(=O)N[C@H]1C(=O)N[C@@H](CC(N)=O)C(=O)N[C@H]2C(=O)N[C@H]3C(=O)N[C@H](C(=O)N[C@@H](C(=O)O)c4cc(O)cc(O)c4-c4cc3ccc4O)[C@H](O[C@H]3C[C@](C)(N)[C@H](O)[C@H](C)O3)c3ccc(c(Cl)c3)Oc3cc2cc(c3O[C@@H]2O[C@H](CO)[C@@H](O)[C@H](O)[C@H]2O[C@H]2C[C@](C)(NCc3cccc(Cl)c3)[C@H](O)[C@H](C)O2)Oc2ccc(cc2Cl)[C@H]1O
6.25,0.78,3.13,> 25,0.78,3.13,CN[C@H](CC(C)C)C(=O)N[C@H]1C(=O)N[C@@H](CC(N)=O)C(=O)N[C@H]2C(=O)N[C@H]3C(=O)N[C@H](C(=O)N[C@@H](C(=O)O)c4cc(O)cc(O)c4-c4cc3ccc4O)[C@H](O[C@H]3C[C@](C)(N)[C@H](O)[C@H](C)O3)c3ccc(c(Cl)c3)Oc3cc2cc(c3O[C@@H]2O[C@H](CO)[C@@H](O)[C@H](O)[C@H]2O[C@H]2C[C@](C)(NCc3ccc(Cl)c(Cl)c3)[C@H](O)[C@H](C)O2)Oc2ccc(cc2Cl)[C@H]1O
1.56,1.56,3.13,25,3.13,3.13,CN[C@H](CC(C)C)C(=O)N[C@H]1C(=O)N[C@@H](CC(N)=O)C(=O)N[C@H]2C(=O)N[C@H]3C(=O)N[C@H](C(=O)N[C@@H](C(=O)O)c4cc(O)cc(O)c4-c4cc3ccc4O)[C@H](O[C@H]3C[C@](C)(N)[C@H](O)[C@H](C)O3)c3ccc(c(Cl)c3)Oc3cc2cc(c3O[C@@H]2O[C@H](CO)[C@@H](O)[C@H](O)[C@H]2O[C@H]2C[C@](C)(NCc3ccc(Cl)cc3Cl)[C@H](O)[C@H](C)O2)Oc2ccc(cc2Cl)[C@H]1O
1.56,6.25,1.56,> 25,0.78,1.56,CN[C@H](CC(C)C)C(=O)N[C@H]1C(=O)N[C@@H](CC(N)=O)C(=O)N[C@H]2C(=O)N[C@H]3C(=O)N[C@H](C(=O)N[C@@H](C(=O)O)c4cc(O)cc(O)c4-c4cc3ccc4O)[C@H](O[C@H]3C[C@](C)(N)[C@H](O)[C@H](C)O3)c3ccc(c(Cl)c3)Oc3cc2cc(c3O[C@@H]2O[C@H](CO)[C@@H](O)[C@H](O)[C@H]2O[C@H]2C[C@](C)(NCc3cccc4ccccc34)[C@H](O)[C@H](C)O2)Oc2ccc(cc2Cl)[C@H]1O
3.13,0.78,1.56,> 25,1.56,3.13,CN[C@H](CC(C)C)C(=O)N[C@H]1C(=O)N[C@@H](CC(N)=O)C(=O)N[C@H]2C(=O)N[C@H]3C(=O)N[C@H](C(=O)N[C@@H](C(=O)O)c4cc(O)cc(O)c4-c4cc3ccc4O)[C@H](O[C@H]3C[C@](C)(N)[C@H](O)[C@H](C)O3)c3ccc(c(Cl)c3)Oc3cc2cc(c3O[C@@H]2O[C@H](CO)[C@@H](O)[C@H](O)[C@H]2O[C@H]2C[C@](C)(NCc3ccc4ccccc4c3)[C@H](O)[C@H](C)O2)Oc2ccc(cc2Cl)[C@H]1O
1.56,0.78,3.13,6.25,1.56,1.56,CN[C@H](CC(C)C)C(=O)N[C@H]1C(=O)N[C@@H](CC(N)=O)C(=O)N[C@H]2C(=O)N[C@H]3C(=O)N[C@H](C(=O)N[C@@H](C(=O)O)c4cc(O)cc(O)c4-c4cc3ccc4O)[C@H](O[C@H]3C[C@](C)(N)[C@H](O)[C@H](C)O3)c3ccc(c(Cl)c3)Oc3cc2cc(c3O[C@@H]2O[C@H](CO)[C@@H](O)[C@H](O)[C@H]2O[C@H]2C[C@](C)(NCc3ccc(-c4ccccc4)cc3)[C@H](O)[C@H](C)O2)Oc2ccc(cc2Cl)[C@H]1O
6.25,3.13,6.25,> 25,3.13,6.25,CCCCCCOc1ccc(CN[C@@]2(C)C[C@H](O[C@H]3[C@H](Oc4c5cc6cc4Oc4ccc(cc4Cl)[C@@H](O[C@H]4C[C@](C)(N)[C@H](O)[C@H](C)O4)[C@@H]4NC(=O)[C@H](NC(=O)[C@@H]6NC(=O)[C@H](CC(N)=O)NC(=O)[C@H](NC(=O)[C@@H](CC(C)C)NC)[C@H](O)c6ccc(c(Cl)c6)O5)c5ccc(O)c(c5)-c5c(O)cc(O)cc5[C@H](C(=O)O)NC4=O)O[C@H](CO)[C@@H](O)[C@@H]3O)O[C@@H](C)[C@H]2O)cc1
3.13,3.13,3.13,> 25,3.13,3.13,CN[C@H](CC(C)C)C(=O)N[C@H]1C(=O)N[C@@H](CC(N)=O)C(=O)N[C@H]2C(=O)N[C@H]3C(=O)N[C@H](C(=O)N[C@@H](C(=O)O)c4cc(O)cc(O)c4-c4cc3ccc4O)[C@H](O[C@H]3C[C@](C)(N)[C@H](O)[C@H](C)O3)c3ccc(c(Cl)c3)Oc3cc2cc(c3O[C@@H]2O[C@H](CO)[C@@H](O)[C@H](O)[C@H]2O[C@H]2C[C@](C)(NCc3ccc(Sc4ccccc4)cc3)[C@H](O)[C@H](C)O2)Oc2ccc(cc2Cl)[C@H]1O
6.25,3.13,6.25,6.25,3.13,3.13,CN[C@H](CC(C)C)C(=O)N[C@H]1C(=O)N[C@@H](CC(N)=O)C(=O)N[C@H]2C(=O)N[C@H]3C(=O)N[C@H](C(=O)N[C@@H](C(=O)O)c4cc(O)cc(O)c4-c4cc3ccc4O)[C@H](O[C@H]3C[C@](C)(N)[C@H](O)[C@H](C)O3)c3ccc(c(Cl)c3)Oc3cc2cc(c3O[C@@H]2O[C@H](CO)[C@@H](O)[C@H](O)[C@H]2O[C@H]2C[C@](C)(NCc3ccc(-c4ccc(Cl)cc4)cc3)[C@H](O)[C@H](C)O2)Oc2ccc(cc2Cl)[C@H]1O
1.56,1.56,1.56,> 25,1.56,3.13,CN[C@H](CC(C)C)C(=O)N[C@H]1C(=O)N[C@@H](CC(N)=O)C(=O)N[C@H]2C(=O)N[C@H]3C(=O)N[C@H](C(=O)N[C@@H](C(=O)O)c4cc(O)cc(O)c4-c4cc3ccc4O)[C@H](O[C@H]3C[C@](C)(N)[C@H](O)[C@H](C)O3)c3ccc(c(Cl)c3)Oc3cc2cc(c3O[C@@H]2O[C@H](CO)[C@@H](O)[C@H](O)[C@H]2O[C@H]2C[C@](C)(NCc3ccc(Oc4ccc(OC)cc4)cc3)[C@H](O)[C@H](C)O2)Oc2ccc(cc2Cl)[C@H]1O
3.13,0.78,3.13,> 25,3.13,3.13,CN[C@H](CC(C)C)C(=O)N[C@H]1C(=O)N[C@@H](CC(N)=O)C(=O)N[C@H]2C(=O)N[C@H]3C(=O)N[C@H](C(=O)N[C@@H](C(=O)O)c4cc(O)cc(O)c4-c4cc3ccc4O)[C@H](O[C@H]3C[C@](C)(N)[C@H](O)[C@H](C)O3)c3ccc(c(Cl)c3)Oc3cc2cc(c3O[C@@H]2O[C@H](CO)[C@@H](O)[C@H](O)[C@H]2O[C@H]2C[C@](C)(NCc3ccc(Oc4cccc(OC)c4)cc3)[C@H](O)[C@H](C)O2)Oc2ccc(cc2Cl)[C@H]1O
12.5,6.25,12.5,> 25,6.25,12.5,CCCCCCCCOc1ccc(CN[C@@]2(C)C[C@H](O[C@H]3[C@H](Oc4c5cc6cc4Oc4ccc(cc4Cl)[C@@H](O[C@H]4C[C@](C)(N)[C@H](O)[C@H](C)O4)[C@@H]4NC(=O)[C@H](NC(=O)[C@@H]6NC(=O)[C@H](CC(N)=O)NC(=O)[C@H](NC(=O)[C@@H](CC(C)C)NC)[C@H](O)c6ccc(c(Cl)c6)O5)c5ccc(O)c(c5)-c5c(O)cc(O)cc5[C@H](C(=O)O)NC4=O)O[C@H](CO)[C@@H](O)[C@@H]3O)O[C@@H](C)[C@H]2O)cc1
12.5,12.5,12.5,> 25,12.5,25,CCCCCCCCCOc1ccc(CN[C@@]2(C)C[C@H](O[C@H]3[C@H](Oc4c5cc6cc4Oc4ccc(cc4Cl)[C@@H](O[C@H]4C[C@](C)(N)[C@H](O)[C@H](C)O4)[C@@H]4NC(=O)[C@H](NC(=O)[C@@H]6NC(=O)[C@H](CC(N)=O)NC(=O)[C@H](NC(=O)[C@@H](CC(C)C)NC)[C@H](O)c6ccc(c(Cl)c6)O5)c5ccc(O)c(c5)-c5c(O)cc(O)cc5[C@H](C(=O)O)NC4=O)O[C@H](CO)[C@@H](O)[C@@H]3O)O[C@@H](C)[C@H]2O)cc1
